Assay results as given in US10351718B2, “Optical filter and imaging device” (AGC Inc., priority 2015, dated 2019).

Assays:
[1] = Absorption characteristic of the dye in dichloromethane; assay type: physicochemical; conditions: for λ80 (wavelength with 80% transmittance on shorter wavelength side of λmax) / λmax − λ80: dichloromethane, transmittance at λmax set to 10%; for εA (maximum absorption coefficient in a wavelength of 430 to 550 nm) / εB (maximum absorption coefficient in a wavelength of 670 to 730 nm) / εB/εA / λmax (maximum absorption wavelength): dissolved in dichloromethane
Experimental: The dyes obtained above were each dissolved in dichloromethane, and using an ultraviolet-visible spectrophotometer (made by Hitachi High Technologies Co., Ltd., U-4100 type), each spectral transmittance curve was measured, from which a maximum absorption wavelength λmax, a wavelength λ80 with which the transmittance becomes 80% on a shorter wavelength side than the maximum absorption wavelength with the transmittance at the maximum absorption wavelength set to 10%, the difference between the maximum absorption wavelength λmax and the wavelength λ80 (λmax−λ80), a maximum absorption coefficient εA in a wavelength of 430 to 550 nm, a maximum absorption coefficient εB in a wavelength of 670 to 730 nm, and a ratio of these (εB/εA) were calculated. Note that measurement of the dye (A9) was not performed because its solubility was low. Further, for each of the following spectral transmittance curves, an ultraviolet-visible spectrophotometer (made by Hitachi High Technologies Co., Ltd., U-4100 type) was used.

[2] = Solubility of dye to resin solution; assay type: physicochemical; conditions: for Solubility Evaluation / Solubility: 12.5 mass % polyester resin OKP850 in cyclohexanone:MIBK 1:1, 50° C.; for Solubility: stirred two hours, visual
Experimental: Regarding several kinds of the dyes obtained above, solubility to a resin solution was evaluated. In a solubility test, as the resin solution, there was used a solution having a resin concentration of 12.5 mass % that was prepared by dissolving a polyester resin (product name: OKP850 made by Osaka Gas Chemicals Co., Ltd.) in a mixed solvent (cyclohexanone:methyl isobutyl ketone (MIBK)=1:1). Results are illustrated in Table 5 together with the kinds of the used dyes. Incidentally, the temperature of the resin solution in the solubility test was 50° C., the dye was put into the resin solution, the resultant resin solution was stirred for two hours, and whether or not the dye was dissolved was observed visually. Evaluation criteria of the solubility are as follows.
A: Solubility greater than 10 mass %
B: Solubility greater than 5 mass % and 10 mass % or less
C: Solubility 5 mass % or less

| λ80 (wavelength with 80% transmittance on shorter wavelength side of λmax) [1] | λmax − λ80 [1] | εA (maximum absorption coefficient in a wavelength of 430 to 550 nm) [1] | εB (maximum absorption coefficient in a wavelength of 670 to 730 nm) [1] | εB/εA [1] | λmax (maximum absorption wavelength) [1] | Solubility Evaluation [2] | Solubility [2] | Solubility to the resin solution (in words) ([2]; polyester resin OKP850 solution, 50° C., compared to dyes without branch structure in R^1) | Structure (SMILES) |
| --- | --- | --- | --- | --- | --- | --- | --- | --- | --- |
| 650 nm | 52 nm | 0.0111 | 1 | 90.1 | 702 nm | A (greater than 10 mass %) | 12 mass % | high solubility | CC(C)N1c2cc(NS(=O)(=O)c3ccc(C(F)(F)F)cc3)c(C3=C([O-])C(=c4cc5c(cc4NS(=O)(=O)c4ccc(C(F)(F)F)cc4)=[N+](C(C)C)C(C)C5(C)C)C3=O)cc2C(C)(C)C1C (centres unmarked) [Dye A1-16] |
| 634 nm | 61 nm | 0.0117 | 1 | 85.5 | 695 nm | C (5 mass % or less) | 3 mass % | – | CC1N(C)c2cc(NS(=O)(=O)c3ccc(C(F)(F)F)cc3)c(C3=C([O-])C(=c4cc5c(cc4NS(=O)(=O)c4ccc(C(F)(F)F)cc4)=[N+](C)C(C)C5(C)C)C3=O)cc2C1(C)C (centres unmarked) [Dye A1-8] |
